For data set [1], the target named is human norepinephrine transporter (Homo sapiens, UniProt P23975). The data set can be described thus: Human norepinephrine (hNET) receptor binding, [125I]-RTI-55. Particulars: membranes of HEK-293 cells transfected with human norepinephrine transporter cDNA; 50 pM [125I]-RTI-55; IC50 converted by Cheng-Prusoff. An outline of the steps:
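Membranes from HEK-293 cells expressing human NET, incubated 90 min at room temperature with 50 pM [125I]-RTI-55 and compound (10^−5 to 10^−12 M) in Krebs-HEPES pH 7.4. Nonspecific binding defined with 10 μM desipramine; filter-bound counts gave IC50, converted to Ki by Cheng-Prusoff.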

Data set [2] concerns the target human serotonin transporter (Homo sapiens, UniProt P31645). The experiment in a line: Human serotonin (hSERT) receptor binding, [125I]-RTI-55. Particulars: membranes of HEK-293 cells transfected with human serotonin transporter cDNA, IC50 converted by Cheng-Prusoff. In a few lines:
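Membranes from HEK-293 cells expressing human SERT were incubated 90 min at room temperature in Krebs-HEPES buffer pH 7.4 with […] [125I]-RTI-55 and compound (10^−5 to 10^−12 M), in duplicate. Nonspecific binding defined with 10 μM citalopram; IC50 converted to Ki by Cheng-Prusoff.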

Counter-ions that a name gives are not always drawn.

Broadly, the Ki is the equilibrium dissociation constant of an inhibitor or competing ligand from its target. Low values mean a stronger hold on the target, high ones a looser hold on the target. One may read the melting point as the temperature, or range, at which the solid turns liquid.

Chain of human norepinephrine transporter (P23975 whole entry): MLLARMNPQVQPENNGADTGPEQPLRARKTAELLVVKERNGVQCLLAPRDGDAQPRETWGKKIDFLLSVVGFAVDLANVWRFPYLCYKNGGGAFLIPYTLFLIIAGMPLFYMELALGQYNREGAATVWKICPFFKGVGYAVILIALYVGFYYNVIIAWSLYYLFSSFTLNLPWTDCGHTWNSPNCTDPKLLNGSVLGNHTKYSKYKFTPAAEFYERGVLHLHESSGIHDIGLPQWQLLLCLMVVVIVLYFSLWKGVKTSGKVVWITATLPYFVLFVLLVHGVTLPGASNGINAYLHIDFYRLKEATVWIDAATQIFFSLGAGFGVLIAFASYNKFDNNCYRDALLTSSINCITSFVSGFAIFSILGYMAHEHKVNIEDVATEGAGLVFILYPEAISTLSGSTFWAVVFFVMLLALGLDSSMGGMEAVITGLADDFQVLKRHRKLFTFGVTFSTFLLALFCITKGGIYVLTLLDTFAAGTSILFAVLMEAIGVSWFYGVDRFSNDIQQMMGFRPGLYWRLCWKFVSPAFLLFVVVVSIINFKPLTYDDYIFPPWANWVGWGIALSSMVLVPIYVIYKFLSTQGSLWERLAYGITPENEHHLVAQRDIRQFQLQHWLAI
Chain of human serotonin transporter (P31645 whole entry): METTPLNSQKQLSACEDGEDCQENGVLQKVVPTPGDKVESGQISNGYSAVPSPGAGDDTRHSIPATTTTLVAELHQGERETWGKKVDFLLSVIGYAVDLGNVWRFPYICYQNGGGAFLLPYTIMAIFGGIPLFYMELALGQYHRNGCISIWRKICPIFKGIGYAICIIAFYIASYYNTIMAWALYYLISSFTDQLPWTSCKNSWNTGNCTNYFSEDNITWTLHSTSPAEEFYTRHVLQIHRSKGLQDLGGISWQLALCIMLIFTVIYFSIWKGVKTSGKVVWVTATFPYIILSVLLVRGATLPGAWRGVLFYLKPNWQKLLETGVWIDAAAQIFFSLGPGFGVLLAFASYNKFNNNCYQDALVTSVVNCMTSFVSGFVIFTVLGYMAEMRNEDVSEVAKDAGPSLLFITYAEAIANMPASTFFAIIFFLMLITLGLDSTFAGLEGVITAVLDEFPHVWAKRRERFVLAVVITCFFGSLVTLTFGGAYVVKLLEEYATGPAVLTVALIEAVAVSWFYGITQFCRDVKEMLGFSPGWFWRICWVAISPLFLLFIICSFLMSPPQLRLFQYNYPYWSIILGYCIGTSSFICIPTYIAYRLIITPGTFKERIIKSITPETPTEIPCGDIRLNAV

On to `Cc1ccccc1Oc1ncccc1OC[C@H]1CCCNC1.O=C(O)/C=C/C(=O)O` [Example 73, (S)-2-(2-methyl-phenoxy)-3-(piperidin-3-ylmethoxy)-pyridine fumaric acid], for which the melting point was 165 to 167 °C (dec.). The same compound gave a Ki in data set [1] of 4 nM. In data set [2], this compound showed a Ki of more than 10000 nM.
In the case of `Fc1ccc(Oc2ncccc2OC[C@H]2CCCNC2)cc1Cl.O=C(O)/C=C/C(=O)O` [Example 66, (S)-2-(3-chloro-4-fluoro-phenoxy)-3-(piperidin-3-ylmethoxy)-pyridine fumaric acid], the melting point was 143 to 144 °C (dec.). The Ki in data set [1] was 20 nM. In data set [2], this compound yielded a Ki of 2900 nM.
On to `Fc1ccc(Oc2ncccc2OC(c2ccccc2)C2CCCNC2)cc1` (single isomer, unassigned; stereoisomer b) (as salt: fumaric acid salt) [Example 89, 2-(4-fluoro-phenoxy)-3-[((R or S)-phenyl)-((S)-piperidin-3-yl)-methoxy]-pyridine fumaric acid, stereoisomer B], for which the melting point was 150 to 152 °C.
On to `Cc1ccc(Cl)c(Oc2ncccc2OC[C@H]2CCCNC2)c1.O=C(O)/C=C/C(=O)O` [Example 76, (S)-2-(2-chloro-5-methyl-phenoxy)-3-(piperidin-3-ylmethoxy)-pyridine fumaric acid], for which the melting point is 183 to 184 °C (dec.). In addition, the Ki in data set [1] amounted to 4 nM. In data set [2], this compound came in with a Ki of 4800 nM.
The matching figures for `O=C(O)/C=C/C(=O)O.c1ccc(CCCOc2ncccc2OC[C@H]2CCCNC2)cc1` [Example 83, (S)-2-(3-phenyl-propoxy)-3-(piperidin-3-ylmethoxy)-pyridine fumaric acid]: 141 to 142 °C (dec.), 210 nM and 10 nM.
For the compound `Fc1ccc(Oc2ncccc2OC[C@@H]2CCCNC2)cc1.O=C(O)/C=C/C(=O)O` [Example 56, (R)-2-(4-fluoro-phenoxy)-3-(piperidin-3-ylmethoxy)-pyridine fumaric acid], the melting point was in the range of 172 to 173 °C.
Consider `Fc1ccc(Oc2ncccc2OC[C@H]2CCCNC2)c(Cl)c1.O=C(O)/C=C/C(=O)O` [Example 71, (S)-2-(2-chloro-4-fluoro-phenoxy)-3-(piperidin-3-ylmethoxy)-pyridine fumaric acid], for which the melting point was 189 to 190 °C (dec.). The compound further yielded a Ki in data set [1] of 2 nM. The compound further yielded a Ki in data set [2] of 6600 nM.
In turn, `CCOc1ncccc1OC(c1ccccc1)C1CCCNC1` (single isomer, unassigned; stereoisomer a) (as salt: fumaric acid salt) [Example 90, 2-ethoxy-3-[((R or S)-phenyl)-((S)-piperidin-3-yl)-methoxy]-pyridine fumaric acid, stereoisomer A] registered a melting point of 159 to 161 °C.
`Fc1ccc(Oc2ncccc2OC(c2ccccc2)C2CCCNC2)cc1` (single isomer, unassigned; stereoisomer a) (as salt: fumaric acid salt) (hydrate or solvate) [Example 88, 2-(4-fluoro-phenoxy)-3-[((R or S)-phenyl)-((S)-piperidin-3-yl)-methoxy]-pyridine fumaric acid, stereoisomer A] yielded a melting point of 191 to 192 °C.
For the compound `O=C(O)/C=C/C(=O)O.c1ccc(Oc2ncccc2OC[C@@H]2CCCNC2)cc1` [Example 94, (R)-2-phenoxy-3-(piperidin-3-ylmethoxy)-pyridine fumaric acid], the melting point is 141 to 143 °C (dec.). Further, the Ki in data set [1] was 410 nM. In addition, the Ki in data set [2] stood at 4700 nM.
On to `O=C(O)/C=C/C(=O)O.c1ccc(COc2ncccc2OC[C@H]2CCCNC2)cc1` [Example 77, (S)-2-benzyloxy-3-(piperidin-3-ylmethoxy)-pyridine fumaric acid], for which the melting point is 165 to 167 °C (dec.). In data set [1], the Ki was found to be 6100 nM. The compound also came in with a Ki in data set [2] of 7200 nM.
For `Cc1cccc(Oc2ncccc2OC[C@H]2CCCNC2)c1.O=C(O)/C=C/C(=O)O` [Example 68, (S)-2-(3-methyl-phenoxy)-3-(piperidin-3-ylmethoxy)-pyridine fumaric acid], the melting point was in the range of 130 to 132 °C. The same compound came in with a Ki in data set [1] of 6 nM. In data set [2], this compound came in with a Ki of 5800 nM.
The matching figures for `Cl.c1ccc(COc2ccccc2OC[C@H]2CCCNC2)cc1` [Example 99, (S)-3-(2-benzyloxy-phenoxymethyl)-piperidine hydrochloride]: 137 to 140 °C (dec.), 11 nM and 4800 nM.
Compound `Fc1ccc(OC[C@H]2CCCNC2)c(Oc2ccccc2)c1.O=C(O)/C=C/C(=O)O` [Example 46, (S)-3-(4-fluoro-2-phenoxy-phenoxymethyl)-piperidine fumaric acid] came in with a melting point of 128 to 130 °C. This compound also displayed a Ki in data set [1] of 2 nM. The Ki in data set [2] was determined as 320 nM.
In the case of `CC(C)Oc1ccccc1Oc1ncccc1OC[C@H]1CCCNC1.O=C(O)/C=C/C(=O)O` [Example 74, (S)-2-(2-isopropoxy-phenoxy)-3-(piperidin-3-ylmethoxy)-pyridine fumaric acid], the melting point is 129 to 134 °C (dec.). For the same compound, in data set [1], the Ki is 11 nM. The same compound came in with a Ki in data set [2] of more than 10000 nM.
`Cc1ccc(Oc2ncccc2OC[C@H]2CCCNC2)cc1C.O=C(O)/C=C/C(=O)O` [Example 65, (S)-2-(3,4-dimethyl-phenoxy)-3-(piperidin-3-ylmethoxy)-pyridine fumaric acid] yielded a melting point of 169 to 170 °C. Also, the Ki in data set [1] was determined as 7 nM. The affinity in data set [2], expressed as Ki, was 2200 nM.
Regarding `CCOc1ncccc1OC(c1ccccc1)C1CCCNC1` (single isomer, unassigned; stereoisomer b) (as salt: fumaric acid salt) [Example 91, 2-ethoxy-3-[((R or S)-phenyl)-((S)-piperidin-3-yl)-methoxy]-pyridine fumaric acid, stereoisomer B], the melting point was 58 to 68 °C (dec.).
As for `CC(C)c1ccccc1Oc1ncccc1OC[C@H]1CCCNC1.O=C(O)/C=C/C(=O)O` [Example 75, (S)-2-(2-isopropyl-phenoxy)-3-(piperidin-3-ylmethoxy)-pyridine fumaric acid], the melting point is 112 to 114 °C (dec.). Moreover, in data set [1], the affinity corresponds to a Ki of 760 nM. The compound also gave a Ki in data set [2] of more than 10000 nM.
The compound `CC(C)COc1ccccc1OCC1CCCNC1.Cl` (centres unmarked) [Example 102, 3-(2-isobutoxy-phenoxymethyl)-piperidine hydrochloride] yielded a melting point of 162 °C. The same compound registered a Ki in data set [1] of 32 nM. In data set [2], this compound showed a Ki of 3960 nM.
With `Fc1ccc(Oc2ncccc2OC[C@H]2CCCNC2)cc1F.O=C(O)/C=C/C(=O)O` [Example 60, (S)-2-(3,4-difluoro-phenoxy)-3-(piperidin-3-ylmethoxy)-pyridine fumaric acid], the melting point is 148 to 150 °C. This compound also gave a Ki in data set [1] of 2 nM. Affinity in data set [2] was put at a Ki of 6600 nM.
`O=C(O)/C=C/C(=O)O.c1ccc(CCOc2ncccc2OC[C@H]2CCCNC2)cc1` [Example 82, (S)-2-phenethyloxy-3-(piperidin-3-ylmethoxy)-pyridine fumaric acid]: the melting point was 146 to 148 °C (dec.). In addition, affinity in data set [1] was put at a Ki of 210 nM. This compound also displayed a Ki in data set [2] of 3700 nM.
`Clc1cccc(Oc2ncccc2OC[C@H]2CCCNC2)c1.O=C(O)/C=C/C(=O)O` [Example 59, (S)-2-(3-chloro-phenoxy)-3-(piperidin-3-ylmethoxy)-pyridine fumaric acid]: the melting point lay in the range of 128 to 129 °C. In addition, in data set [1], the Ki was determined as 4 nM. The same compound came in with an inhibition constant (Ki) in data set [2] of 6300 nM.
The matching figures for `Cc1cc(Oc2ncccc2OC[C@H]2CCCNC2)ccc1F.O=C(O)/C=C/C(=O)O` [Example 67, (S)-2-(4-fluoro-3-methyl-phenoxy)-3-(piperidin-3-ylmethoxy)-pyridine fumaric acid]: 136 to 138 °C, 6 nM and 3300 nM.
`Fc1cc(Oc2ncccc2OC[C@H]2CCCNC2)ccc1Cl.O=C(O)/C=C/C(=O)O` [Example 69, (S)-2-(4-chloro-3-fluoro-phenoxy)-3-(piperidin-3-ylmethoxy)-pyridine fumaric acid] displayed a melting point of 150 to 151 °C. The compound further had a Ki in data set [1] of 4 nM. This compound also gave a Ki in data set [2] of 5500 nM.
On to `Fc1ccc(Oc2ncccc2OC[C@@H]2CCCNC2)cc1F.O=C(O)/C=C/C(=O)O` [Example 63, (R)-2-(3,4-difluoro-phenoxy)-3-(piperidin-3-ylmethoxy)-pyridine fumaric acid], for which the melting point lay within 130 to 131 °C. In data set [1], this compound had a Ki of 140 nM. The same compound gave a Ki in data set [2] of 803 nM.
As to `FC(F)(F)Oc1cccc(Oc2ncccc2OC[C@H]2CCCNC2)c1.O=C(O)/C=C/C(=O)O` [Example 70, (S)-3-(piperidin-3-ylmethoxy)-2-(3-trifluoromethoxy-phenoxy)-pyridine fumaric acid], the melting point is 144 to 146 °C. For the same compound, affinity in data set [1] was put at a Ki of 102 nM. In addition, the Ki in data set [2] turned out to be 9700 nM.
For the compound `Cl.c1ccc(Oc2ccccc2OC[C@H]2CCCNC2)cc1` [Example 43, (S)-3-(2-phenoxy-phenoxymethyl)-piperidine hydrochloride], the melting point fell in the range of 134 to 136 °C. For the same compound, the inhibition constant Ki in data set [1] was 0.7 nM. In data set [2], this compound registered a Ki of 2300 nM.

For the origin of these results see patent US20100120858A1, “Piperidine Derivatives” (Pfizer Inc., priority 2006, published 2010).
